Each structure is given as a SMILES string. “Also recorded” adds a separate entry of the source.

The test system of data set [1] is HeLa, HEK293 and COS cells. As to the kind of experiment: In vitro transfection, dose-response (luciferase reporter gene expression). Format: cell-based. As to the method: FIG. 2: Dose-response curves of the in vitro transfection activity of the transfecting compound “KanaChol”. The expression of the reporter gene is indicated as a function of the charge ratio of the lipoplexes formed with the plasmid DNA. The HeLa, HEK293 and COS cells were transfected in accordance with the protocol described in Example 3 using lipoplexes prepared by mixing 5 μg of plasmid DNA expressing luciferase with the required amount of lipid. The data are expressed in relative light units (RLU) per mg of cellular proteins.
FIG. 3: Dose-response curves of the in vitro transfection activity of the KanaChol/DOPE (molar ratio 1:1) liposomes. The expression of the reporter gene is indicated as a function of the charge ratio of the lipoplexes formed with the plasmid DNA. The HeLa, HEK293 and COS cells were transfected in accordance with the protocol described in Example 4 using lipoplexes prepared by mixing 5 μg of plasmid DNA expressing luciferase with the required amount of lipid to form lipoplexes characterized by the charge ratio indicated. The data are expressed in relative light units (RLU) per mg of cellular proteins.
(§1) This study was carried out for lipoplexes comprising various amounts of KanaChol: 6.6, 13.2, 33, 66 or 132 nmol of KanaChol per 5 μg of DNA. In order to determine the theoretical mean charge ratio, it was considered that 1 μg of DNA represents 3 nmol of negative charges and that 3 amine groups of kanamycin are protonated at neutral pH during the formation of the lipoplexes and the transfection.
Preparation of the KanaChol/DNA lipoplexes: the KanaChol obtained according to Example 1 was dissolved in a 20 mM Hepes buffer solution (pH 7.4) at a positive charge concentration of 20 mM (considering that 3 amine functions are protonated at neutral pH). The lipoplexes were then prepared in accordance with the protocol described by Vigneron et al. (PNAS, 93, pp. 9682-9686, September. 1996) or by Patel et al. (Biochem. and Biophys. Res. Comm., 281, pp. 536-543, 2001).
Cell culture: HeLa cells (American Type Culture Collection (ATCC) Rockville, Md., USA) derived from a human cervical epithelium carcinoma were cultured in the presence of a medium of the MEM (minimum essential medium) type supplemented with 10% of fetal calf serum and antibiotics. The medium and the additives came from Gibco/BRL Life Technologies (Gaithersburg, Md., USA). The cells were cultured in flasks at 37° C. and at 5% of carbon dioxide in an incubator. […]
A 20 μl aliquot of supernatant of the centrifuged lysate was diluted in 100 μl of lysis buffer, to which 4 μl of 25 mM ATP (Sigma) and 20 μl of 25 mM luciferin (Sigma) were added. The samples were then placed in a Lumet LB9501 luminometer (Berthold, Nashua, N.H.) and the light emission integration value was measured for 10 seconds. […]
Background: Reporter assays use an easily measured gene product as a stand-in for the process of interest.

The nature of data set [2]: Electrophoretic gel shift studies (mean positive charge). Format: physicochemical. The following applies: complexed with nucleic acids. As to the method: as §1
Background: A gel shift assay detects complexes by their altered migration in electrophoresis.

The subject of the next data set is HeLa cells. As to the kind of experiment: Cytotoxicity by total extractable cellular proteins in the cell lysate. It is filed as cell-based. The settings on record: 48 hours post-transfection, high charge ratio. As to the method: FIG. 4: Cytotoxicity of the transfecting compound KanaChol. HeLa cells were transfected in accordance with the protocol described in Example 3 using lipoplexes prepared by mixing 5 μg of plasmid DNA expressing luciferase with the amount of lipid required to form lipoplexes characterized by the charge ratio indicated. At 48 hours post-transfection, the cells were recovered and the toxicity was quantified using the total amount of cellular proteins in the cell lysate as an index of the number of cells, cell death producing a decrease in the extractable proteins. The total cellular proteins in the cell lysate is indicated as a function of the charge ratio of the lipoplexes. The data are expressed as concentration of extractable cellular proteins in the cell lysate (at fixed volume).
FIG. 5: Cytotoxicity of the KanaChol/DOPE (molar ratio 1:1) lipsomes. […] At 48 hours post-transfection, the cells were recovered and the toxicity was quantified using the total amount of cellular proteins in the cell lysate as an index of the number of cells, cell death producing a decrease in the extractable proteins. […] The data are expressed as concentration of extractable cellular proteins in the cell lysate (at fixed volume).
Thus, the cytotoxicity of the KanaChol was also measured at various charge ratios with the DNA. […]

For data set [3], the system named is various cell lines (16HBE, HepG2). As to the kind of experiment: In vitro transfection activity spectrum in other, less conventional cell lines (luciferase). It is filed as cell-based. The settings on record: charge ratios of between 3 and 5; KanaChol alone weaker in particular in 16HBE and HepG2. As to the method:
FIG. 6: Expression of luciferase in various cell lines transfected either with the transfecting compound KanaChol or with the KanaChol/DOPE (1:1) liposomes. The various cell lines were transfected in accordance with the protocol described in Example 5 using either KanaChol/DNA lipoplexes or KanaChol/DOPE/DNA lipoplexes (with a positive charge ratio of 3-5) prepared by mixing 5 μg of plasmid DNA expressing luciferase and the required amount of lipid to obtain a positive charge ratio of 3-5. The data are expressed in relative light units (RLU) per mg of cellular proteins.
The in vitro transfection experiments carried out in Examples 4 and 5 were again carried out in a similar way, but with other less conventional cell lines (species and specificity of each cell line are indicated in FIG. 6). The KanaChol/DNA and KanaChol/DOPE/DNA formulations were used at charge ratios of between 3 and 5 (optimum values as defined in Examples 4 and 5).

The test system of data set [4] is HeLa; NIH 3T3; HEK298; COS; and 16HBE cell lines. As to the kind of experiment: In vitro transfection activity of NeoChol and NeoChol/DOPE (luciferase). Format: cell-based. The settings on record: various charge ratios (1.3-26 NeoChol/DNA, 0.66-26 NeoChol/DOPE/DNA); 5 cell lines; NeoChol alone weaker particularly in 16HBE. The protocol:
FIG. 8: Transfecting activity in various cell lines (HEK293, NIH3T3, HeLa, COS, 16HBE), which were transfected with the transfecting compound NeoChol. The expression of the reporter gene can be indicated as a function of the various charge ratio of the lipoplexes and plasmid DNA. The various cell lines were transfected according to the protocol as described in Example 8, using NeoChol/DNA lipoplexes, which were prepared by mixing 5 μg of plasmid DNA expressing luciferase. The data can be expressed in relative light units (RLU) per mg of cellular proteins.
FIG. 9: Expression of luciferase in various cell lines (HEK293, NIH3T3, HeLa, COS, 16HBE), which were transfected with the transfecting compound NeoChol/DOPE (1:1). The expression of the reporter gene is indicated as a function of the various charge ratio of the lipoplexes and plasmid DNA. The various cell lines were transfected according to the protocol as described in Example 8, using NeoChol/DOPE/DNA lipoplexes, which were prepared by mixing 5 μg of plasmid DNA expressing luciferase. The data are expressed in relative light units (RLU) per mg of cellular proteins. […]

Consider `CC(C)CCCC(C)C1CCC2C3CC=C4CC(OC(=O)NCC5OC(OC6C(N)CC(N)C(OC7OC(CO)C(O)C(N)C7O)C6O)C(O)C(O)C5O)CCC4(C)C3CCC12C` (stereo not drawn) [KanaChol, 3β[6′-kanamycin-carbamoyl]cholesterol], for which, in data set [1] (HeLa, HEK293 and COS compared), the “cell line with highest transfection” value is reported as “highest in the COS cell line”. Moreover, in data set [1] (lipoplexes with 5 μg plasmid DNA expressing luciferase, HeLa, HEK293 and COS cells, data in RLU per mg of cellular proteins), the “expression of the reporter gene luciferase (transfection)” value is on record as “high expression levels”. For the same molecule, in data set [1] (lipoplexes with 5 μg plasmid DNA, 3 cell lines), the “theoretical mean charge ratio of optimum transfection efficiency” value is listed as “approximately 5”. The “charge ratio at which the transfection efficiency decreases” value in data set [1] (very high charge ratios) is reported as above 7. Besides, in data set [2], the mean positive charge is given as 2-3. Besides, the “cytotoxicity (total extractable cellular proteins in the cell lysate)” value in the data set on HeLa cells is recorded as “decrease in the total number of extractable cellular proteins”. Further, the “transfection efficiency (luciferase expression)” value in data set [3] is “less efficient overall”.

Take `CC(C)CCCC(C)C1CCC2C3CC=C4CC(OC(=O)NCCSC[C@H]5O[C@@H](OC6C(O)[C@H](N)CC(N)[C@H]6O[C@H]6CC(CN)[C@@H](O)C(O)C6N)C(O)C5O[C@H]5OC(CN)[C@@H](O)C(O)C5N)CCC4(C)C3CCC12C` (some centres unmarked) [NeoChol, (5″-aminoethylsulfanyl) neomycin carbamoyl cholesterol]: the “transfection efficacy (luciferase expression)” value in data set [4] is “efficient transfection; also recorded: somewhat less efficient”.

For the origin of these results see patent US7772003B2, “Lipid derivatives of aminoglycosides” (Aventis Pharma S.A., priority 2001, dated 2010).
